What was measured:
Assay in all cases: -log10 GI50 (growth inhibition 50%) (-log10(M)); higher = more potent growth inhibition
[1] = system: MX1
How it was run: (§1)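 Breast cancer cell lines were treated with each compound for 72 hours at nine doses in 1:5 serial dilution, in triplicate, and luminescence was read against a time-zero plate. A Gompertz curve was fitted to the dose-response data by nonlinear least squares to obtain GI50, the molar concentration giving the set level of growth inhibition, which is reported as its negative logarithm. The logarithm is base 10, and values equal to the top dose carry a < qualifier.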

[2] = system: HCC1395
How it was run: as §1

[3] = system: HCC1806
How it was run: as §1

[4] = system: ZR751
How it was run: as §1

[5] = system: MCF7
How it was run: as §1

[6] = system: HCC2185
How it was run: as §1

[7] = system: MCF10A
How it was run: as §1

[8] = system: MDAMB134VI
How it was run: as §1

[9] = system: HCC1143
How it was run: as §1

[10] = system: HCC3153
How it was run: as §1

[11] = system: CAMA1
How it was run: as §1

[12] = system: HCC1419
How it was run: as §1

[13] = system: SUM225CWN
How it was run: as §1

[14] = system: BT549
How it was run: as §1

[15] = system: 184B5
How it was run: as §1

[16] = system: AU565
How it was run: as §1

[17] = system: 600MPE
How it was run: as §1

[18] = system: HCC1569
How it was run: as §1

[19] = system: MDAMB157
How it was run: as §1

[20] = system: SUM1315MO2
How it was run: as §1

C/C(=C\c1csc(C)n1)[C@@H]1C[C@@H]2O[C@]2(C)CCC[C@H](C)[C@H](O)[C@@H](C)C(=O)C(C)(C)[C@@H](O)CC(=O)N1 [Ixabepilone]
-log10 GI50 [1]: 8.53
-log10 GI50 [2]: 7.96
-log10 GI50 [3]: 8.36
-log10 GI50 [4]: 6.68
-log10 GI50 [5]: 9.44
-log10 GI50 [6]: 8.32
-log10 GI50 [7]: 8.1
-log10 GI50 [8]: 9
-log10 GI50 [9]: 8.01
-log10 GI50 [10]: 8.21
-log10 GI50 [11]: 9.02
-log10 GI50 [12]: 4.93
-log10 GI50 [13]: 5.96
-log10 GI50 [14]: 8.26
-log10 GI50 [15]: 6.76
-log10 GI50 [16]: 8.42
-log10 GI50 [17]: 8.53
-log10 GI50 [18]: 6.55
-log10 GI50 [19]: 8.33
-log10 GI50 [20]: 8.22

COc1ccc(-c2cc3c(C)nc(N)nc3n([C@H]3CC[C@H](OCCO)CC3)c2=O)cn1
-log10 GI50 [1]: 7.41
-log10 GI50 [2]: 7.02
-log10 GI50 [3]: 6.43
-log10 GI50 [4]: 7.62
-log10 GI50 [5]: 7.39
-log10 GI50 [6]: 7.12
-log10 GI50 [7]: 6.69
-log10 GI50 [8]: 6.8
-log10 GI50 [9]: 6.86
-log10 GI50 [10]: 4.87
-log10 GI50 [11]: 6.74
-log10 GI50 [12]: 7.58
-log10 GI50 [13]: 6.79
-log10 GI50 [14]: 6.38
-log10 GI50 [15]: 6.65
-log10 GI50 [16]: 7.51
-log10 GI50 [17]: 7.32
-log10 GI50 [18]: 6.78
-log10 GI50 [19]: 6.13
-log10 GI50 [20]: 7.06

CC(C)[C@H](CO)Nc1nc(Nc2cccc(Cl)c2)c2ncn(C(C)C)c2n1 [Purvalanol A]
-log10 GI50 [1]: < 3.78
-log10 GI50 [2]: < 3.78
-log10 GI50 [3]: 4.14
-log10 GI50 [4]: < 3.78
-log10 GI50 [5]: 4.29
-log10 GI50 [6]: 4.43
-log10 GI50 [7]: 4.29
-log10 GI50 [8]: 4.26
-log10 GI50 [9]: < 3.78
-log10 GI50 [10]: 3.83
-log10 GI50 [11]: 3.87
-log10 GI50 [12]: < 3.78
-log10 GI50 [13]: 4.36
-log10 GI50 [14]: < 3.78
-log10 GI50 [15]: 5.52
-log10 GI50 [16]: 4.39
-log10 GI50 [17]: 4.15
-log10 GI50 [18]: 4.7
-log10 GI50 [19]: < 3.78
-log10 GI50 [20]: 5.09

CCCC(CCC)C(=O)O [Valproic acid]
-log10 GI50 [1]: 3.45
-log10 GI50 [2]: 2.47
-log10 GI50 [3]: 2.58
-log10 GI50 [4]: 2.78
-log10 GI50 [5]: 2.64
-log10 GI50 [6]: 2.88
-log10 GI50 [7]: 2.97
-log10 GI50 [8]: 3.12
-log10 GI50 [9]: 2.66
-log10 GI50 [10]: 2.55
-log10 GI50 [11]: 2.79
-log10 GI50 [12]: 2.93
-log10 GI50 [13]: 2.76
-log10 GI50 [14]: 2.57
-log10 GI50 [15]: 3.07
-log10 GI50 [16]: 2.85
-log10 GI50 [17]: 2.52
-log10 GI50 [18]: 2.77
-log10 GI50 [19]: 2.68
-log10 GI50 [20]: 2.62

Cc1cc(Nc2cc(N3CCN(C)CC3)nc(Sc3ccc(NC(=O)C4CC4)cc3)n2)n[nH]1 [VX-680]
-log10 GI50 [1]: 6.81
-log10 GI50 [2]: 5.21
-log10 GI50 [3]: 4.76
-log10 GI50 [4]: 5.29
-log10 GI50 [5]: 5.08
-log10 GI50 [6]: 6.48
-log10 GI50 [7]: 6.04
-log10 GI50 [8]: 6.03
-log10 GI50 [9]: 6
-log10 GI50 [10]: 4.72
-log10 GI50 [11]: 4.53
-log10 GI50 [12]: 4.81
-log10 GI50 [13]: 4.76
-log10 GI50 [14]: 5.75
-log10 GI50 [15]: 5.74
-log10 GI50 [16]: 5.66
-log10 GI50 [17]: 5.06
-log10 GI50 [18]: 5.68
-log10 GI50 [19]: 5.43
-log10 GI50 [20]: 5.8

Cc1ccc(C(=O)N(CCCN)[C@@H](c2nc3cc(Cl)ccc3c(=O)n2Cc2ccccc2)C(C)C)cc1 [Ispinesib]
-log10 GI50 [1]: 7.92
-log10 GI50 [2]: 7.64
-log10 GI50 [3]: 7.55
-log10 GI50 [4]: 7.05
-log10 GI50 [5]: 7.42
-log10 GI50 [6]: 7.53
-log10 GI50 [7]: 7.4
-log10 GI50 [8]: 7.36
-log10 GI50 [9]: 7.29
-log10 GI50 [10]: 7.56
-log10 GI50 [11]: 7.51
-log10 GI50 [12]: 5.18
-log10 GI50 [13]: 6.99
-log10 GI50 [14]: 7.34
-log10 GI50 [15]: 6.05
-log10 GI50 [16]: 7.65
-log10 GI50 [17]: 7.69
-log10 GI50 [18]: 6.8
-log10 GI50 [19]: 7.5
-log10 GI50 [20]: 7.39

CC[C@H](CO)Nc1nc(NCc2ccccc2O)c2ncn(C(C)C)c2n1 [Olomoucine II]
-log10 GI50 [1]: 5.24
-log10 GI50 [2]: 5.72
-log10 GI50 [3]: 5.06
-log10 GI50 [4]: 5.21
-log10 GI50 [5]: 5.23
-log10 GI50 [6]: 5.11
-log10 GI50 [7]: 5.51
-log10 GI50 [8]: 5.23
-log10 GI50 [9]: 5.51
-log10 GI50 [10]: 5.51
-log10 GI50 [11]: 5.3
-log10 GI50 [12]: 5.36
-log10 GI50 [13]: 5.28
-log10 GI50 [14]: 5.66
-log10 GI50 [15]: 5.53
-log10 GI50 [16]: 5.33
-log10 GI50 [17]: 5.23
-log10 GI50 [18]: 5.28
-log10 GI50 [19]: 5.23
-log10 GI50 [20]: 5.47

CC(C(C)N1CC(=O)NC(=O)C1)N1CC(=O)NC(=O)C1 (stereo not given) [ICRF-193]
-log10 GI50 [1]: 5.95
-log10 GI50 [2]: 4.69
-log10 GI50 [3]: < 4.3
-log10 GI50 [4]: 6.07
-log10 GI50 [5]: < 4.48
-log10 GI50 [6]: 5.71
-log10 GI50 [7]: 7.07
-log10 GI50 [8]: 4.32
-log10 GI50 [9]: < 4.3
-log10 GI50 [10]: < 4.48
-log10 GI50 [11]: < 4.3
-log10 GI50 [12]: < 4.3
-log10 GI50 [13]: < 4.48
-log10 GI50 [14]: < 4.3
-log10 GI50 [15]: < 4.48
-log10 GI50 [16]: 6.14
-log10 GI50 [17]: < 4.3
-log10 GI50 [18]: < 4.3
-log10 GI50 [19]: 5.16
-log10 GI50 [20]: 6.35

Cc1[nH]c2ccccc2c1CCNCc1ccc(/C=C/C(=O)NO)cc1 [LBH589]
-log10 GI50 [1]: 7.47
-log10 GI50 [2]: 6.56
-log10 GI50 [3]: 6.82
-log10 GI50 [4]: 6.8
-log10 GI50 [5]: 7.1
-log10 GI50 [6]: 7.16
-log10 GI50 [7]: 6.84
-log10 GI50 [8]: 7.05
-log10 GI50 [9]: 7.09
-log10 GI50 [10]: 6.53
-log10 GI50 [11]: 7.3
-log10 GI50 [12]: 7.23
-log10 GI50 [13]: 6.96
-log10 GI50 [14]: 6.91
-log10 GI50 [15]: 6.99
-log10 GI50 [16]: 6.98
-log10 GI50 [17]: 6.72
-log10 GI50 [18]: 6.81
-log10 GI50 [19]: 7.29
-log10 GI50 [20]: 6.62

Cc1cncc2cccc(S(=O)(=O)N3CCCN(C(=O)CN)C[C@@H]3C)c12 [Glycyl H1152]
-log10 GI50 [1]: 5.96
-log10 GI50 [2]: 5.05
-log10 GI50 [3]: < 4.18
-log10 GI50 [4]: 4.81
-log10 GI50 [5]: 4.67
-log10 GI50 [6]: 5.62
-log10 GI50 [7]: 5.28
-log10 GI50 [8]: 5.9
-log10 GI50 [9]: 5.05
-log10 GI50 [10]: < 4.48
-log10 GI50 [11]: < 4.48
-log10 GI50 [12]: 4.77
-log10 GI50 [13]: < 4.18
-log10 GI50 [14]: 5.01
-log10 GI50 [15]: < 4.18
-log10 GI50 [16]: 5.14
-log10 GI50 [17]: < 4.18
-log10 GI50 [18]: 5.21
-log10 GI50 [19]: < 4.18
-log10 GI50 [20]: 5.15

— the supplement of paper PMC3937590
